Measured values published in PubChem BioAssay AID248 (DTP/NCI, 2004).
Inconclusive results and toxic doses are left out.

Tested on: L1210 leukemia ip in BDF1 mice, survival T/C
Assay: NCI In Vivo Anticancer Drug Screen. Data for tumor model L1210 Leukemia (intraperitoneal) in B6D2F1 (BDF1) mice
Conditions: endpoint: mean survival time, higher = longer survival
In short: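 Each compound was tested against a transplantable tumor grown in mice. The endpoint was survival, with treated animals benchmarked against vehicle controls as a simple ratio.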

[1] = dose: 50.0 mg/kg/injection, schedule: Q01DX009 (ip), vehicle: saline with Tween-80
[2] = dose: 100.0 mg/kg/injection, schedule: Q01DX009 (ip), vehicle: saline with Tween-80
[3] = dose: 100.0 mg/kg/injection, schedule: Q04DX002 (ip), vehicle: saline with Tween-80
[4] = dose: 200.0 mg/kg/injection, schedule: Q04DX002 (ip), vehicle: saline with Tween-80
[5] = dose: 400.0 mg/kg/injection, schedule: Q04DX002 (ip), vehicle: saline with Tween-80
[6] = dose: 100.0 mg/kg/injection, schedule: Q04DX003 (ip), vehicle: saline
[7] = dose: 200.0 mg/kg/injection, schedule: Q04DX003 (ip), vehicle: saline
[8] = dose: 400.0 mg/kg/injection, schedule: Q04DX003 (ip), vehicle: saline
[9] = dose: 200.0 mg/kg/injection, schedule: Q01DX009 (ip), vehicle: saline with Tween-80
[10] = dose: 10.0 mg/kg/injection, schedule: Q01DX009 (ip), vehicle: saline
[11] = dose: 20.0 mg/kg/injection, schedule: Q01DX009 (ip), vehicle: saline
[12] = dose: 40.0 mg/kg/injection, schedule: Q01DX009 (ip), vehicle: saline
[13] = dose: 100.0 mg/kg/injection, schedule: Q01DX001 (ip), vehicle: saline
[14] = dose: 200.0 mg/kg/injection, schedule: Q01DX001 (ip), vehicle: saline
[15] = dose: 400.0 mg/kg/injection, schedule: Q01DX001 (ip), vehicle: saline
[16] = dose: 100.0 mg/kg/injection, schedule: Q04DX003 (ip), vehicle: saline with Tween-80
[17] = dose: 200.0 mg/kg/injection, schedule: Q04DX003 (ip), vehicle: saline with Tween-80
[18] = dose: 400.0 mg/kg/injection, schedule: Q04DX003 (ip), vehicle: saline with Tween-80
[19] = dose: 100.0 mg/kg/injection, schedule: Q01DX009 (ip), vehicle: Klucel (hydroxypropylcellulose) (HPC)
[20] = dose: 200.0 mg/kg/injection, schedule: Q01DX009 (ip), vehicle: Klucel (hydroxypropylcellulose) (HPC)
[21] = dose: 400.0 mg/kg/injection, schedule: Q01DX009 (ip), vehicle: Klucel (hydroxypropylcellulose) (HPC)
[22] = dose: 50.0 mg/kg/injection, schedule: Q01DX009 (ip), vehicle: Klucel (hydroxypropylcellulose) (HPC)
[23] = dose: 100.0 mg/kg/injection, schedule: Q04DX003 (ip), vehicle: Klucel (hydroxypropylcellulose) (HPC)
[24] = dose: 200.0 mg/kg/injection, schedule: Q04DX003 (ip), vehicle: Klucel (hydroxypropylcellulose) (HPC)
[25] = dose: 400.0 mg/kg/injection, schedule: Q04DX003 (ip), vehicle: Klucel (hydroxypropylcellulose) (HPC)

Structure (SMILES): O=C(O)CN1C(=O)c2ccccc2C1=O
- T/C (dose: 25.0 mg/kg/injection, schedule: Q01DX009 (ip), vehicle: saline with Tween-80): 91 % of control
- T/C [1]: 98 % of control
- T/C [2]: 98 % of control
- T/C [3]: 100 % of control
- T/C [4]: 103 % of control
- T/C [5]: 95 % of control

Structure (SMILES): Cc1ccc(S(=O)(=O)OCCOCCOc2ccc(C(C)(C)CC(C)(C)C)cc2)cc1
- T/C (dose: 100.0 mg/kg/injection, schedule: Q01DX001 (ip), vehicle: acetone): 97 % of control
- T/C [6]: 98 % of control
- T/C (dose: 200.0 mg/kg/injection, schedule: Q01DX001 (ip), vehicle: acetone): 89 % of control
- T/C [7]: 92 % of control
- T/C (dose: 400.0 mg/kg/injection, schedule: Q01DX001 (ip), vehicle: acetone): 87 % of control
- T/C [8]: 91 % of control

Structure (SMILES): O=C1CCCCC/C1=C1\C(=O)Nc2ccc(Br)cc21
- T/C [2]: 107 % of control
- T/C [3]: 105 % of control
- T/C [9]: 100 % of control
- T/C [4]: 105 % of control
- T/C (dose: 400.0 mg/kg/injection, schedule: Q01DX009 (ip), vehicle: saline with Tween-80): 93 % of control
- T/C [5]: 97 % of control

Structure (SMILES): O=C(Nc1ccc(C(=O)O)cc1)Nc1ccccc1Cl
- T/C (dose: 25.0 mg/kg/injection, schedule: Q04DX002 (ip), vehicle: saline): 106 % of control
- T/C (dose: 50.0 mg/kg/injection, schedule: Q04DX002 (ip), vehicle: saline): 100 % of control
- T/C (dose: 100.0 mg/kg/injection, schedule: Q04DX002 (ip), vehicle: saline + alcohol): 114 % of control
- T/C (dose: 100.0 mg/kg/injection, schedule: Q04DX002 (ip), vehicle: saline): 118 % of control

Structure (SMILES): Oc1cc(Cl)ccc1Cl
- T/C (dose: 75.0 mg/kg/injection, schedule: Q01DX009 (ip), vehicle: saline): 90 % of control
- T/C [6]: 95 % of control
- T/C (dose: 150.0 mg/kg/injection, schedule: Q01DX009 (ip), vehicle: saline): 101 % of control
- T/C [7]: 100 % of control
- T/C (dose: 300.0 mg/kg/injection, schedule: Q01DX009 (ip), vehicle: saline): 96 % of control
- T/C [8]: 98 % of control

Structure (SMILES): CON(C)C(=O)CCN1CC1
- T/C [10]: 97 % of control
- T/C [11]: 94 % of control
- T/C (dose: 20.0 mg/kg/injection, schedule: Q04DX003 (ip), vehicle: saline): 100 % of control
- T/C [12]: 97 % of control
- T/C (dose: 40.0 mg/kg/injection, schedule: Q04DX003 (ip), vehicle: saline): 100 % of control
- T/C (dose: 80.0 mg/kg/injection, schedule: Q04DX003 (ip), vehicle: saline): 104 % of control
- T/C [6]: 94 % of control

Structure (SMILES): O=[N+]([O-])c1ccc(S(=O)(=O)OCc2ccccc2COS(=O)(=O)c2ccc([N+](=O)[O-])cc2)cc1
- T/C (dose: 50.0 mg/kg/injection, schedule: Q04DX002 (ip), vehicle: saline with Tween-80): 106 % of control
- T/C [3]: 101 % of control

Structure (SMILES): CC(C)=CCc1ccc(Cl)cc1
- T/C [1]: 94 % of control
- T/C [2]: 105 % of control
- T/C [9]: 102 % of control

Structure (SMILES): CCOC(=O)n1ncnc1N
- T/C (dose: 100.0 mg/kg/injection, schedule: Q01DX009 (ip), vehicle: saline): 94 % of control
- T/C [6]: 91 % of control
- T/C (dose: 200.0 mg/kg/injection, schedule: Q01DX009 (ip), vehicle: saline): 98 % of control
- T/C [7]: 98 % of control
- T/C (dose: 400.0 mg/kg/injection, schedule: Q01DX009 (ip), vehicle: saline): 104 % of control
- T/C [8]: 95 % of control

Structure (SMILES): COc1cc2cc3c4cc(OC)c(OC)cc4cc[n+]3cc2cc1OC
- T/C [10]: 92 % of control
- T/C [11]: 116 % of control
- T/C [12]: 118 % of control
- T/C (dose: 80.0 mg/kg/injection, schedule: Q01DX009 (ip), vehicle: saline): 110 % of control
- T/C (dose: 160.0 mg/kg/injection, schedule: Q01DX009 (ip), vehicle: saline): 113 % of control
- T/C (dose: 320.0 mg/kg/injection, schedule: Q01DX009 (ip), vehicle: saline): 93 % of control

Structure (SMILES): COc1ccc(C(=O)C(C)CN2CCCCC2)cc1 (stereo not given)
- T/C [13]: 96 % of control
- T/C [14]: 107 % of control

Structure (SMILES): O=C(c1c2c(nc3ccccc13)CCCC2)N1CCOCC1
- T/C [13]: 100 % of control
- T/C [14]: 97 % of control
- T/C [15]: 97 % of control

Structure (SMILES): CC(=O)c1c(OC(C)C(=O)O)ccc2ccccc12 (stereo not given)
- T/C [13]: 98 % of control
- T/C [14]: 101 % of control
- T/C [15]: 107 % of control

Structure (SMILES): COc1ccc(-n2c(=S)[nH]c3ccc(C)cc3c2=O)cc1
- T/C [16]: 92 % of control
- T/C [17]: 87 % of control
- T/C [18]: 90 % of control

Structure (SMILES): COC(=O)N1CC=CCN1C(=O)OC
- T/C [6]: 94 % of control
- T/C [7]: 116 % of control
- T/C [8]: 115 % of control

Structure (SMILES): S=C(N/N=C1\CCCCC1c1ccccc1)Nc1ccccc1 (stereo not given)
- T/C [19]: 95 % of control
- T/C [20]: 90 % of control
- T/C [21]: 104 % of control

Structure (SMILES): CCCC1(C)COB(c2ccc(C)cc2)OC1
- T/C (dose: 25.0 mg/kg/injection, schedule: Q01DX009 (ip), vehicle: Klucel (hydroxypropylcellulose) (HPC)): 102 % of control
- T/C [22]: 105 % of control
- T/C (dose: 50.0 mg/kg/injection, schedule: Q04DX003 (ip), vehicle: Klucel (hydroxypropylcellulose) (HPC)): 92 % of control
- T/C [19]: 114 % of control
- T/C [23]: 101 % of control
- T/C [20]: 122 % of control
- T/C [24]: 92 % of control
- T/C [21]: 88 % of control
- T/C [25]: 95 % of control

Structure (SMILES): CCOC(=O)/C=C(\N)c1ccccc1
- T/C [3]: 102 % of control
- T/C [4]: 108 % of control
- T/C [5]: 91 % of control

Structure (SMILES): Cc1ccccc1N=P(c1ccccc1)(c1ccccc1)c1ccccc1
- T/C (dose: 100.0 mg/kg/injection, schedule: Q01DX009 (ip), vehicle: gum acacia): 100 % of control
- T/C (dose: 100.0 mg/kg/injection, schedule: Q04DX003 (ip), vehicle: gum acacia): 93 % of control
- T/C (dose: 200.0 mg/kg/injection, schedule: Q01DX009 (ip), vehicle: gum acacia): 102 % of control
- T/C (dose: 200.0 mg/kg/injection, schedule: Q04DX003 (ip), vehicle: gum acacia): 90 % of control
- T/C (dose: 400.0 mg/kg/injection, schedule: Q04DX003 (ip), vehicle: gum acacia): 93 % of control

Structure (SMILES): C=CCNC(=S)Nc1ccc(C)cc1
- T/C [22]: 95 % of control
- T/C [19]: 97 % of control
- T/C [23]: 103 % of control
- T/C [20]: 100 % of control
- T/C [24]: 101 % of control
- T/C [25]: 88 % of control

Structure (SMILES): O=P(N1CCOCC1)(N1CC1)N1CC1
- T/C (dose: 2.3 mg/kg/injection, schedule: Q01DX015 (ip), vehicle: saline): 103 % of control
- T/C (dose: 3.5 mg/kg/injection, schedule: Q01DX015 (ip), vehicle: saline): 108 % of control
- T/C (dose: 5.3 mg/kg/injection, schedule: Q01DX015 (ip), vehicle: saline): 114 % of control
- T/C (dose: 6.2 mg/kg/injection, schedule: Q01DX001 (ip), vehicle: saline): 105 % of control
- T/C (dose: 9.3 mg/kg/injection, schedule: Q01DX001 (ip), vehicle: saline): 107 % of control
- T/C (dose: 12.5 mg/kg/injection, schedule: Q01DX009 (ip), vehicle: saline): 196 % of control
- T/C (dose: 14.0 mg/kg/injection, schedule: Q01DX001 (ip), vehicle: saline): 112 % of control
- T/C (dose: 14.0 mg/kg/injection, schedule: Q01DX015 (ip), vehicle: saline): 210 % of control
- T/C (dose: 23.0 mg/kg/injection, schedule: Q01DX015 (ip), vehicle: saline): 246 % of control
- T/C (dose: 25.0 mg/kg/injection, schedule: Q01DX009 (ip), vehicle: saline): 116 % of control
- T/C (dose: 33.0 mg/kg/injection, schedule: Q01DX001 (ip), vehicle: saline): 157 % of control
- T/C (dose: 38.0 mg/kg/injection, schedule: Q01DX015 (ip), vehicle: saline): 104 % of control

Structure (SMILES): O=C(C1=Cc2ccccc2OC1)N1CCN(C(=O)C2=Cc3ccccc3OC2)CC1
- T/C [16]: 100 % of control
- T/C [17]: 97 % of control
- T/C [18]: 95 % of control

Structure (SMILES): CCCCCCC1(C)CCC(=O)O1 (stereo not given)
- T/C [13]: 94 % of control
- T/C [14]: 94 % of control
- T/C [15]: 100 % of control
